From patent US5023244A, “Anti-dementia agents” (Hoechst Japan Limited, priority 1986, dated 1991)

Key:
[1] = Passive avoidance task, memory retention test after cycloheximide-induced amnesia (retrieval process); assay type: in vivo, ICR male mice; conditions: cycloheximide 120 mg/kg i.p., test 24 h after training
From the text: The passive avoidance task and the induction of amnesia by cycloheximide are experimental methods usually employed (Naoki Yamazaki et al.: Jap. J. Psychopharmacol., 3, 127 (1983)). The detailed method is described below. The apparatus used for the experiment was a plastic box 24 cm in height, 20 cm in width and 23 cm in length with a floor of iron grids at the corner of which was placed a platform 8 cm in length, 8 cm in width and 1.5 cm in height. When a mouse placed in the box was subjected to electric stimulus with a current of 0.3 mA for a period of approximately 3 seconds, the mouse escaped onto the platform. After subsequent non-stimulus period of 8 seconds, the mouse was subjected to the electric stimulus for an additional period of approximately 5 seconds. By this method, the mouse acquired memory of aversion that the electric stimulus would be delivered whenever the animal got off the platform, thus the passive avoidance task was established. The learning was judged to be established if the mouse placed on the platform under non-stimulus condition immediately after the training remained on it for 30 seconds or longer.
The test to observe whether or not a mouse retained memory of aversion was performed 24 hours after the training and percent memory retention was calculated according to the following equation: [formula]
In order to induce deficits of memory, the animal was intraperitoneally administered 15 min prior to the training with a physiological saline solution of cycloheximide at a dose of 120 mg/kg., and then subjected to the electric stimulus for training.
A memory retention test was performed 24 hours after training. An intraperitoneal administration was done 75 min. prior to the test respectively for L-N^6 -phenylisopropyladenosine (Compound A) and N^6 -cyclohexyladenosine (Compound C), 60 min. prior to the test respectively for 2-chloroadenosine(Compound B) and adenosine-5'-(N-cyclopropyl)carboxamide (Compound E) and 45 min. prior to the test for adenosine-5'-(N-ethyl)carboxamide (Compound D).

[2] = Acute toxicity (LD50) in mice by intraperitoneal administration; conditions: mouse, in vivo, ip
[3] = 100 μg/kg i.p., 75 min prior to test

With C[C@H](Cc1ccccc1)Nc1ncnc2c1ncn2[C@@H]1O[C@H](CO)[C@@H](O)[C@H]1O [Compound A, L-N^6 -phenylisopropyladenosine] the Percent memory retention ([1]; 50 μg/kg i.p., 75 min prior to test) was 36.8%, the Percent memory retention [1, 3] was 55.0% and the LD50 [2] was 31 mg/kg.
Nc1nc(Cl)nc2c1ncn2[C@@H]1O[C@H](CO)[C@@H](O)[C@H]1O [Compound B, 2-chloroadenosine] showed a Percent memory retention ([1]; 500 μg/kg i.p., 60 min prior to test) of 35.0%, a Percent memory retention ([1]; 1000 μg/kg i.p., 60 min prior to test) of 52.4% and an LD50 [2] of 45 mg/kg.
With OC[C@H]1O[C@@H](n2cnc3c(NC4CCCCC4)ncnc32)[C@H](O)[C@@H]1O [Compound C, N^6 -cyclohexyladenosine] the Percent memory retention ([1]; 10 μg/kg i.p., 75 min prior to test) was 14.8%, the Percent memory retention [1, 3] was 20.8% and the Percent memory retention ([1]; 300 μg/kg i.p., 75 min prior to test) was 66.7%.
For CCNC(=O)[C@H]1O[C@@H](n2cnc3c(N)ncnc32)[C@H](O)[C@@H]1O [Compound D, adenosine-5'-(N-ethyl)carboxamide], the Percent memory retention ([1]; 3 μg/kg i.p., 45 min prior to test) was 39.3%, the Percent memory retention ([1]; 7 μg/kg i.p., 45 min prior to test) was 42.3% and the Percent memory retention ([1]; 10 μg/kg i.p., 45 min prior to test) was 51.4%.
In the case of Nc1ncnc2c1ncn2[C@@H]1O[C@H](C(=O)NC2CC2)[C@@H](O)[C@H]1O [Compound E, adenosine-5'-(N-cyclopropyl)carboxamide], the Percent memory retention ([1]; 1 μg/kg i.p., 60 min prior to test) was 25.0%, the Percent memory retention ([1]; 3 μg/kg i.p., 60 min prior to test) was 40.0% and the Percent memory retention ([1]; 10 μg/kg i.p., 60 min prior to test) was 62.1%. The Percent memory retention ([1]; 30 μg/kg i.p., 60 min prior to test) was 66.7%.
